Biological target: neuraminidase
Format: biochemical
Settings: in vitro enzyme inhibition; class symbols
Excerpt: Compositions of the invention are screened for inhibitory activity against neuraminidase by any of the conventional techniques for evaluating enzyme activity. […] Useful in vitro screens have been described in detail and will not be elaborated here.

Row | Compound | IC50 [µM]
1 | CCc1cc(C(=O)O)cc(NC(=N)N)c1NC(C)=O [Compound 213] | 75 to 100
2 | N=C(N)Nc1cc(C(=O)O)ccc1NC(=O)C(F)(F)F [Compound 208] | 20 to 75
